# Experimental data taken from ChEMBL document CHEMBL3044576, “Synthesis of promising antimicrobial agents: a novel series of N-(4-(2,6-dichloroquinolin-3-yl)-6-(aryl)pyrimidin-2-yl)-2-morpholinoacetamides” (2013).
# What was measured:
# Type in all cases: functional
# [1] = system: Aspergillus niger; assay: Antifungal activity against Aspergillus niger MTCC 282 after 72 hr by serial broth dilution method; details: MTCC 282, 72 h
# [2] = system: Escherichia coli; assay: Antibacterial activity against Escherichia coli MTCC 443 after 24 to 48 hr by serial broth dilution method
# [3] = system: Staphylococcus aureus; assay: Antibacterial activity against Staphylococcus aureus MTCC 96 after 24 to 48 hr by serial broth dilution method
# [4] = system: Streptococcus pyogenes; assay: Antibacterial activity against Streptococcus pyogenes MTCC 442 after 24 to 48 hr by serial broth dilution method
# [5] = system: Aspergillus clavatus; assay: Antifungal activity against Aspergillus clavatus MTCC 1323 after 72 hr by serial broth dilution method; details: MTCC 1323, 72 h
# [6] = system: Candida albicans; assay: Antifungal activity against Candida albicans MTCC 227 after 72 hr by serial broth dilution method; details: MTCC 227, 72 h
# [7] = system: Pseudomonas aeruginosa; assay: Antibacterial activity against Pseudomonas aeruginosa MTCC 1688 after 24 to 48 hr by serial broth dilution method
MIC [1] [µg/mL],MIC [2] [µg/mL],MIC [3] [µg/mL],MIC [4] [µg/mL],MIC [5] [µg/mL],MIC [6] [µg/mL],MIC [7] [µg/mL],Compound
100,100,250,50,100,100,25,O=C(CN1CCOCC1)Nc1nc(-c2ccc(Cl)cc2)cc(-c2cc3cc(Cl)ccc3nc2Cl)n1
25,50,50,100,50,250,50,O=C(CN1CCOCC1)Nc1nc(-c2ccccc2F)cc(-c2cc3cc(Cl)ccc3nc2Cl)n1
25,12.5,500,12.5,50,100,50,O=C(CN1CCOCC1)Nc1nc(-c2ccccc2[N+](=O)[O-])cc(-c2cc3cc(Cl)ccc3nc2Cl)n1
100,–,–,–,100,500,–,COC1=CC(=O)C[C@@H](C)[C@]12Oc1c(Cl)c(OC)cc(OC)c1C2=O [GRISEOFULVIN]
100,50,250,100,25,500,250,O=C(CN1CCOCC1)Nc1nc(-c2ccccc2Cl)cc(-c2cc3cc(Cl)ccc3nc2Cl)n1
100,100,250,500,100,1000,100,O=C(CN1CCOCC1)Nc1nc(-c2cccc(F)c2)cc(-c2cc3cc(Cl)ccc3nc2Cl)n1
1000,25,500,100,12.5,500,250,O=C(CN1CCOCC1)Nc1nc(-c2ccc(F)cc2)cc(-c2cc3cc(Cl)ccc3nc2Cl)n1
50,100,50,100,100,500,100,O=C(CN1CCOCC1)Nc1nc(-c2cccc([N+](=O)[O-])c2)cc(-c2cc3cc(Cl)ccc3nc2Cl)n1
500,250,500,500,500,1000,250,COc1ccc(-c2cc(-c3cc4cc(Cl)ccc4nc3Cl)nc(NC(=O)CN3CCOCC3)n2)cc1
1000,500,1000,1000,1000,1000,250,O=C(CN1CCOCC1)Nc1nc(-c2ccccc2)cc(-c2cc3cc(Cl)ccc3nc2Cl)n1
500,500,500,500,500,1000,250,O=C(CN1CCOCC1)Nc1nc(-c2ccccc2O)cc(-c2cc3cc(Cl)ccc3nc2Cl)n1
1000,500,500,1000,1000,1000,1000,O=C(CN1CCOCC1)Nc1nc(-c2ccc(O)cc2)cc(-c2cc3cc(Cl)ccc3nc2Cl)n1
100,250,100,250,25,250,250,O=C(CN1CCOCC1)Nc1nc(-c2ccc([N+](=O)[O-])cc2)cc(-c2cc3cc(Cl)ccc3nc2Cl)n1

Compound,MIC [1] [µg/mL],MIC [2] [µg/mL],MIC [3] [µg/mL],MIC [4] [µg/mL],MIC [5] [µg/mL],MIC [6] [µg/mL],MIC [7] [µg/mL]
CC1(C)S[C@@H]2[C@H](NC(=O)[C@H](N)c3ccccc3)C(=O)N2[C@H]1C(=O)O [AMPICILLIN],–,100,250,100,–,–,100
